Results taken from ChEMBL document CHEMBL5532670, “Discovery of Tetrahydropyrazolopyrazine Derivatives as Potent and Selective MYT1 Inhibitors for the Treatment of Cancer” (J Med Chem, 2024).

Columns and labels:
[1] = MRT (0 to t) in CD-1 mouse at 1 mg/kg, iv measured after 24 hrs; assay type: ADME, organism-based; conditions: in vivo
[2] = MRT (0 to t) in Sprague-Dawley rat at 1 mg/kg, iv measured after 24 hrs; assay type: ADME, organism-based; conditions: in vivo
[3] = Cmax in CD-1 mouse at 30 mg/kg, po measured after 24 hrs; assay type: ADME, organism-based; conditions: in vivo
[4] = AUC (0 to t) in CD-1 mouse at 30 mg/kg, po measured after 24 hrs; assay type: ADME, organism-based; conditions: in vivo
[5] = Tmax in CD-1 mouse at 30 mg/kg, po measured after 24 hrs; assay type: ADME, organism-based; conditions: in vivo
[6] = Oral bioavailability in CD-1 mouse at 30 mg/kg measured after 24 hrs; assay type: ADME, organism-based; conditions: in vivo
[7] = Cmax in Sprague-Dawley rat at 20 mg/kg, po measured after 24 hrs; assay type: ADME, organism-based; conditions: in vivo
[8] = Tmax in Sprague-Dawley rat at 20 mg/kg, po measured after 24 hrs; assay type: ADME, organism-based; conditions: in vivo
[9] = Oral bioavailability in Sprague-Dawley rat at 20 mg/kg measured after 24 hrs; assay type: ADME, organism-based; conditions: in vivo
[10] = Drug concentration in mouse plasma assessed as free fraction administered for 21 days and measured after 8 hrs post dose; assay type: ADME; conditions: 504 h, time 21 day
[11] = in vivo; conditions: CD-1, mouse, iv, 1 mg/kg
[12] = in vivo; conditions: Sprague-Dawley, rat, iv, 1 mg/kg
[13] = in vivo; conditions: CD-1, mouse, iv, 1 mg/kg; remark: listed apart in the source
[14] = in vivo; conditions: Sprague-Dawley, rat, iv, 1 mg/kg; remark: listed apart in the source
[15] = in vitro; conditions: human, Caco-2
[16] = in vitro; conditions: mouse, hepatocytes
[17] = Cmax in CD-1 mouse at 10 mg/kg, po measured after 24 hrs; assay type: ADME, organism-based; conditions: in vivo
[18] = AUC (0 to t) in CD-1 mouse at 10 mg/kg, po measured after 24 hrs; assay type: ADME, organism-based; conditions: in vivo
[19] = Tmax in CD-1 mouse at 10 mg/kg, po measured after 24 hrs; assay type: ADME, organism-based; conditions: in vivo
[20] = Oral bioavailability in CD-1 mouse at 10 mg/kg measured after 24 hrs; assay type: ADME, organism-based; conditions: in vivo
[21] = Cmax in Sprague-Dawley rat at 10 mg/kg, po measured after 24 hrs; assay type: ADME, organism-based; conditions: in vivo
[22] = Tmax in Sprague-Dawley rat at 10 mg/kg, po measured after 24 hrs; assay type: ADME, organism-based; conditions: in vivo
[23] = Oral bioavailability in Sprague-Dawley rat at 10 mg/kg measured after 24 hrs; assay type: ADME, organism-based; conditions: in vivo
[24] = AUC (0 to t) in CD-1 mouse at 5 mg/kg, po measured after 24 hrs; assay type: ADME, organism-based; conditions: in vivo
[25] = AUC (0 to t) in Sprague-Dawley rat at 5 mg/kg, po measured after 24 hrs; assay type: ADME, organism-based; conditions: in vivo
[26] = in vivo; conditions: CD-1, mouse, po, 5 mg/kg
[27] = in vivo; conditions: CD-1, mouse, po, 5 mg/kg; remark: listed apart in the source
[28] = in vivo; conditions: CD-1, mouse, po, 5 mg/kg; remark: listed apart in the source
[29] = in vivo; conditions: Sprague-Dawley, rat, po, 5 mg/kg
[30] = in vivo; conditions: Sprague-Dawley, rat, po, 5 mg/kg; remark: listed apart in the source
[31] = in vivo; conditions: Sprague-Dawley, rat, po, 5 mg/kg; remark: listed apart in the source

Work on Cc1ccc(O)c(C)c1-n1c(N)c(C(=O)N2CCn3nccc3C2)c2nc(C3CC3)c(C)nc21 yielded an MRT last at 24 h [1] of 10.2 min, an MRT last at 24 h [2] of 28.2 min and a Cmax [3] of 1800 ng/mL. For the same compound, the AUC(0-t) at 24 h [4] was 2310 ng·h/mL, the Tmax [5] was 15 min and the bioavailability [6] was 55.8%. It also gave a Cmax [7] of 1780 ng/mL, a Tmax [8] of 40.2 min and a bioavailability [9] of 55.9%. For the same compound, the “Cp(f)” value [10] was 60.7 nM, the clearance at 24 h [11] was 122 mL/min/kg and the clearance at 24 h [12] was 49.1 mL/min/kg. For the same compound, the Vd at 24 h [13] was 1.3 L/kg, the Vd at 24 h [14] was 1.4 L/kg and the Papp A→B at 2 h [15] was 1 ×10⁻⁶ cm/s. For the same compound, the CLhep predicted [16] was 83.5 mL/min/kg.

For Cc1ccc(O)c(C)c1-n1c(N)c(C(=O)N2CCn3nccc3C2)c2nc(C)c(C)nc21, the MRT last at 24 h [1] was 6.6 min, the MRT last at 24 h [2] was 24.6 min and the Cmax [17] was 902 ng/mL. It also gave an AUC(0-t) at 24 h [18] of 330 ng·h/mL, a Tmax [19] of 15 min and a bioavailability [20] of 29.3%. For the same compound, the Cmax [21] was 1410 ng/mL, the Tmax [22] was 15 min and the bioavailability [23] was 50.9%. The clearance at 24 h [11] was 149 mL/min/kg, the clearance at 24 h [12] was 46.8 mL/min/kg and the Vd at 24 h [13] was 0.99 L/kg. The Vd at 24 h [14] was 1.2 L/kg, the Papp A→B at 2 h [15] was 1.48 ×10⁻⁶ cm/s and the CLhep predicted [16] was 85.4 mL/min/kg.

Work on Cc1cc2c(C(N)=O)c(N)n(-c3c(C)ccc(O)c3C)c2nc1C [LUNRESERTIB] yielded an MRT last at 24 h [1] of 23.4 min, an MRT last at 24 h [2] of 33.6 min and an AUC(0-t) at 24 h [24] of 539 ng·h/mL. The AUC(0-t) at 24 h [25] was 1720 ng·h/mL, the “Cp(f)” value [10] was 39.3 nM and the clearance at 24 h [11] was 85.7 mL/min/kg. For the same compound, the clearance at 24 h [12] was 37.6 mL/min/kg, the Vd at 24 h [13] was 2.3 L/kg and the Vd at 24 h [14] was 1.4 L/kg. It also gave a Cmax at 24 h [26] of 511 ng/mL, a Tmax at 24 h [27] of 24 min and a bioavailability at 24 h [28] of 55.8%. The Cmax at 24 h [29] was 1360 ng/mL, the Tmax at 24 h [30] was 15 min and the bioavailability at 24 h [31] was 78%. For the same compound, the Papp A→B at 2 h [15] was 11 ×10⁻⁶ cm/s and the CLhep predicted [16] was 79.4 mL/min/kg.
